Measurements: US10183941B2, “Pyrimidine or pyridopyridone compound and application thereof” (GUANGZHOU BEBETTER MEDICINE TECHNOLOGY CO., LTD., priority 2015, dated 2019)

Key:
[1] = tested on: phosphorylation of Rb at Ser780 in MDA-MB-231 breast cancer cells; experiment: Western Blot experiment, Rb phosphorylation; type: cell-based; settings: MDA-MB-231 cells, 16 hours incubation, FIG. 1
Protocol: MDA-MB-231 cells were grown in monolayer culture. […] The protein concentration was determined by the Branfor method. After being added with a loading buffer (Beyotime, # P0015L), the supernatant was boiled at 100° C. for 8 min, and the protein was separated by 8%-10% SDS-PAGE electrophoresis and then transferred to the PVDF membrane, and the membrane was blocked with 5% skimmed milk powder for 45 min, and then the cells were incubated overnight at 4° C. with primary antibody β-actin (CST, #4970), Rb (D20) Rabbit mAb (CST, #9313), Phospho-Rb(Ser780)(D59B7) Rabbit mAb (CST, #8180), and then the membrane was washed with TBST solution for 3×10 min. The cells were incubated in the dark at room temperature for 2 h with the fluorescent secondary antibody IRDye@680CW Goat (polyclonal) Anti-Rabbit 1gG (H+L), Highly Cross Adsorbed (LI-COR, #926-68071), and then the membrane was washed under the same condition above. Finally, the membrane was detected and imaged on a LI-COR Odyssey Infrared Fluorescence Scanning System, and the results are shown in FIG. 1.
CDK4/6 can make Rb protein lose the arrest on cell cycle by phosphorylating the tumor suppressor protein Rb protein. CDK4/6 inhibitor can prevent the inactivation of tumor suppressor protein Rb and thereby restore the arrest of Rb on cell cycle.

SW620 = experiment: Tumor cell proliferation inhibition (CellTiter-Glo), SW620; type: cell-based; settings: Homo sapiens, SW-620; 72 hours, 10% fetal bovine serum; read-out: SW620 IC50 class
Protocol: (§1) The content of adenosine triphosphate (ATP) was determined using the CellTiter-Glo Luminescent Cell Viability Assay Kit (Promega, Madison, Wis.) to evaluate cell viability. Tumor cell lines (SW620, ZR-75-1, MDA-MB-231) were purchased from the Cell Resource Center of IBS, Fudan University, Shanghai and the American Type Culture Collection (ATCC). The cell density was determined using Scepter automated cell counter (Millipore # PHCC00000) after the cells were digested with pancreatin in cell culture dishes and resuspended in DPBS medium. The cells were diluted to a solution of 44,000 cells per ml. The cell solution of which density was adjusted was added into the cell assay plate at 90 microliters per well. The well plate was incubated in an incubator with 5% CO2 at 37° C. for 24 hours and then added with test compounds with different concentrations. The cells were incubated with the compounds in the presence of 10% fetal bovine serum for 72 hours. ATP content was assayed using the CellTiter-Glo® Luminescent Cell Viability Assay kit (see instructions of manufacturer) to assess cell growth inhibition. Briefly, 30 μl of CellTiter-Glo® reagent was added to each well, rocked for 10 minutes to induce cell lysis, and […] were detected and recorded with Fluoroskan Ascent FL (Thermo). The maximum signal value was obtained from the cells treated with dimethyl sulfoxide for 72 hours. The minimum signal value was obtained from the separate culture medium (cell number was zero). Inhibition rate %=(maximum signal value−compound signal value)/(maximum signal value−minimum signal value)×100. Data was processed using GraphPad Prism V5.0 (GraphPad Software, San Diego, Calif.) software. IC50 values were calculated by fitting S-shaped dose-response curves.

[2] = tested on: MDA-MB-435 breast cancer cells; experiment: Pharmacodynamic experiment, MDA-MB-435 xenograft; type: in vivo, mouse
Protocol: MDA-MB-435 breast cancer cells were obtained from Shanghai Cell Bank of Chinese Academy of Sciences. Cryopreserved cells were thawed in a 37° C. water bath and then placed in RPMI 1640 medium supplemented with 10% fetal bovine serum (FBS), 1% insulin (Bioman Biotech, Shanghai) and incubated in 5% CO2 of Tissue Culture Incubator. […] The sign of successful transplantation was the formation of a round bulging lump under the skin. Tumor size can be measured approximately two weeks after implantation. The tumor size was measured by a caliper.

MDA-MB-231 = experiment: Tumor cell proliferation inhibition (CellTiter-Glo), MDA-MB-231; type: cell-based; settings: Homo sapiens, 72 hours, 10% fetal bovine serum, read-out: MDA-MB-231 IC50 class
Protocol: as §1

[3] = target: T1, CDK6 (GST-CDK6(1-326end)) (Homo sapiens, UniProt Q00534); experiment: CDK6 activity inhibition experiment (Caliper mobility shift assay); type: biochemical; settings: enzyme activity inhibition; read-out: CDK6 IC50 class
T1 construct: GST-CDK6(1-326end); purchased Carna 04-107
T1 sequence (Q00534 whole entry): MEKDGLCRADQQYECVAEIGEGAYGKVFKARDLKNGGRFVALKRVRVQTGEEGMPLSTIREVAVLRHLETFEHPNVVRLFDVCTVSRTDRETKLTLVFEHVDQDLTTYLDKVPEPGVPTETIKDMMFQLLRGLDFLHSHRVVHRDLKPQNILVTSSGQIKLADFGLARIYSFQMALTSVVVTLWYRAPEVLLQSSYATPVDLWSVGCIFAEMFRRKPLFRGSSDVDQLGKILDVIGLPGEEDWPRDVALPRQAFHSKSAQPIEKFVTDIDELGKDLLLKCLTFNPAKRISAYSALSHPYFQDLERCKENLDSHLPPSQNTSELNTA
T1 sequence (P30281 whole entry partner): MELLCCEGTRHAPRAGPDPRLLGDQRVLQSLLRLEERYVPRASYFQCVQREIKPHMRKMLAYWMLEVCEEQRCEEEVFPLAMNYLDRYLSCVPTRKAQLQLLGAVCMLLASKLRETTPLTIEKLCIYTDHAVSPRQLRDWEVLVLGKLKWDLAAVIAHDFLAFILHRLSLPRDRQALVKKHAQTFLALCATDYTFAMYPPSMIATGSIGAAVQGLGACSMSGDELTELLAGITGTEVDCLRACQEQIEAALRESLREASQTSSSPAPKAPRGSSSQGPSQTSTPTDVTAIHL
Protocol: The activity of CDK6 protein kinase was measured using Caliper mobility shift assay (see J. Biomol Screen 14:31, 2009). […] 10 μl of the 2.5 times diluted CDK6 enzyme solution (GST-CDK6(1-326end); Carna, Cat. No 04-107) was added and then incubated at room temperature for 10 minutes, then 10 μl of the 2.5 times diluted substrate solution Peptide FAM-P8 (GL Biochem, Cat. No. 112396) was added. After being incubated at 28° C. for 40 minutes, 25 μl of stop solution was added to stop the reaction. Conversion rate data was read from Caliper EZ Reader II (Caliper Life Sciences). The conversion rate data was converted into inhibition rate data. […] Conversion rate data was converted into inhibition rate data according to the method described above. Inhibition rate %=(max−conversion rate)/(max−min)×100.

[4] = Pharmacokinetic (PK) experiment in rats; type: in vivo; settings: male, SD, plasma, po, rat, intragastric 20 mg/kg
Protocol: Male SD rats weighing 300-350 g were fasted overnight prior to the experiment. The compounds to be tested were dissolved in 30% sulfobutyl ether-β-cyclodextrin (SBE-β-CD) and the rats were intragastric administration at 20 mg/kg. The blood was taken from the tails of the rats at 15 min, 30 min, and 1, 2, 3, 4, 6, 8 and 24 hours after administration, with about 0.3 ml of blood at each time point, and then the blood was placed in a centrifuge tube containing K2-EDTA, and centrifuged (2,000 g, 10 min, 4° C.) to take the plasma which was then stored in an ultra-low temperature freezer at −80° C. 50 μL, of plasma sample was mixed with 5 μL of internal standard (IS) and extracted with ethyl acetate. The residue was redissolved in acetonitrile after vacuum drying. The sample was filtered and injected into LC-MS/MS for analysis to determine the concentration of the compounds to be tested.
In the table: Tmax refers to the peak time, Cmax refers to the maximum plasma drug concentration, T1/2 is the half-life, AUClast refers to the area under the 0-24 hour time-concentration curve, AUCinf refers to the area under the 0-Inf time-concentration curve.

For CC(=O)c1c(C)c2cnc(Nc3ccc(C4CCN(CCS(C)(=O)=O)CC4)cn3)nc2n(C2CCCC2)c1=O [Compound 1, 6-acetyl-8-cyclopentyl-5-methyl-2-((5-(1-(2-(methylsulfonyl)ethyl)piperidin-4-yl)pyridin-2-yl)amino)pyrido[2,3-d]pyrimidin-7(8H)-one], the “phosphorylation of Rb at Ser780 site” value [1] was “effectively reduce”, the IC50 (SW620) was 100 to 500 nM and the T/C value ([2]; after 14 days of oral administration, PD-0332991 150 then 100 mg/kg once daily, Compound 1 75 mg/kg twice daily) was 25%. For the same molecule, the T/C value ([2]; day 6 after discontinuation (D20)) was 32%, the IC50 (MDA-MB-231) was 100 to 500 nM and the IC50 [3] was 10 to 50 nM. For the same molecule, the Cmax [4] was 1450 ng/mL, the Tmax [4] was 1.5 h and the half-life [4] was 1.5 h. The AUC(0-t) ([4]; 0-24 hour) was 4400 ng·h/mL and the AUC(0-inf) ([4]; 0-Inf) was 4540 ng·h/mL.
